Literature values in US20040151761A1, “Methods and compositions utilizing astaxanthin” (priority 2003, published 2004).

Experiments:
human neuroblastoma cell = settings: cited from earlier work
mouse splenocytes = settings: cultured cell assay (Jyonouchi et al.); cited from earlier work
[1] = cited from earlier work
IgG = settings: dogs, 20 mg; cited from earlier work
lymphocyte = settings: rats; cited from earlier work
[2] = system: tumor necrosis factor (TNF); settings: hamsters; cited from earlier work
[3] = system: chemical-induced carcinogenesis; settings: mice; cited from earlier work

Row | SMILES | human neuroblastoma cell proliferation (human neuroblastoma cell) | in vitro antibody response of mouse splenocytes to T-dependent antigens (mouse splenocytes) | conversion of beta-carotene to vitamin A ([1]; cats (Schweigert et al. 2002)) | absorption of beta-carotene ([1]; domestic cats (Chew et al. 2000)) | plasma IgG concentration versus un-supplemented animals (IgG) | lymphocyte proliferation (lymphocyte) | production of tumor necrosis factor (TNF) by macrophages [2] | chemical-induced carcinogenesis [3]
1 | CC1=C(/C=C/C(C)=C/C=C/C(C)=C/C=C/C=C(C)/C=C/C=C(C)/C=C/C2=C(C)CCCC2(C)C)C(C)(C)CCC1 [beta-carotene] | inhibit human neuroblastoma cell proliferation | increase in vitro antibody response | not accompanied by conversion of beta-carotene to vitamin A | readily absorb beta-carotene | higher concentrations of plasma IgG than un-supplemented animals | – | – | –
2 | CC1=C(/C=C/C(C)=C/C=C/C(C)=C/C=C/C=C(C)/C=C/C=C(C)/C=C/C2=C(C)C(=O)CCC2(C)C)C(C)(C)CCC1=O [canthaxanthin] | – | – | – | – | – | increases lymphocyte proliferation | enhances the production of tumor necrosis factor (TNF) | prevent chemical-induced carcinogenesis
3 | CC1=C[C@H](O)CC(C)(C)[C@H]1/C=C/C(C)=C/C=C/C(C)=C/C=C/C=C(C)/C=C/C=C(C)/C=C/C1=C(C)C[C@@H](O)CC1(C)C [lutein] | – | – | – | – | higher concentrations of plasma IgG than un-supplemented animals | – | – | –
